Experiments:
[1] = test system: BV-2 cell line; experiment: IL-6 release in LPS-treated BV-2 cells (LANCE Ultra TR-FRET); format: cell-based, mouse; conditions: compound 10 μM; LPS 100 ng/mL
Method: Cell viability was determined by Presto Blue assay after 24 h. (B) Effect of compounds 11, 34, and 36 (0.1, 1, 10 μM) on NO-release (%) in LPS-treated (100 ng/mL) BV-2 cell line. NO-release was measured using a fluorometric assay with 2,3-diaminonaphthalene (DAN). (C, D) Effects of compounds 11 and 36 (0.1, 1, 10 μM) on IL-6 and TNF-α release in LPS-treated (100 ng/mL) BV-2 cell line. The IL-6 and TNF-α levels were measured using LANCE Ultra TR-FRET Detection Kit (PerkinElmer). Statistical analysis was performed using GraphPad Prism 9.0.0. All values are expressed as mean with SD. Differences among groups were evaluated by one-way ANOVA followed by posthoc analysis (Dunnett’s multiple comparison tests) vs. control group (LPS on BV-2 cells and okadaic acid on HT-22 cells) and were considered statistically significant if p < 0.05 (*p < 0.05, **p < 0.01, ***p < 0.001, and ****p < 0.0001). […]
The IL-6 and TNF-α levels in the culture supernatants were measured using LANCE Ultra TR-FRET Detection Kit (PerkinElmer), according to manufacturer protocol. […] After 1 h of incubation of IL-6 and 3h for incubation of TNF-α in the dark, at 22 °C, the plates were read with an EnVision plate reader (PerkinElmer) with the excitation wavelength at 320 nm, the donor emission at 615 nm, and the acceptor emission at 660 nm. […]

[2] = target: GSK-3β (Homo sapiens, UniProt P49841); experiment: biochemical
GSK-3β, sequence (P49841 whole entry): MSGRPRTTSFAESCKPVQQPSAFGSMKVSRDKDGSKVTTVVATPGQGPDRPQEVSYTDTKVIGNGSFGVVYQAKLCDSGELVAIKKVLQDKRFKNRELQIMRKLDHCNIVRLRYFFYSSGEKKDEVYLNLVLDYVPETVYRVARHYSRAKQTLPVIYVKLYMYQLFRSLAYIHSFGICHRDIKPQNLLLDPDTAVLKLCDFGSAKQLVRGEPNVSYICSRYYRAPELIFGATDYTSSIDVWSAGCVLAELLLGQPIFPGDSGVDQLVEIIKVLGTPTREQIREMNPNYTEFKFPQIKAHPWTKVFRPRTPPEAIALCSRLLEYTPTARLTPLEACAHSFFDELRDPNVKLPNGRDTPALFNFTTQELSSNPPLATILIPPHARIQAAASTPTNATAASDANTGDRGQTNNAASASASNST
Method: We evaluated the pharmacological properties of the compounds in vitro against GSK-3β using the GSK-3β Kinase Enzyme System followed by ADP-Glo bioluminescent assay.[50] The principle of the assay is to determine the amount of ADP formed from ATP in the kinase reaction. […] Additionally, compounds 11 and 36 in complex with GSK-3β were analyzed by the proteins’ melting temperature determination using Thermal Shift Assay (see Figure S1 in the SI).
The inhibitory activities of the tested compounds against the GSK-3β human recombinant kinase were measured using Promega’s GSK-3β Kinase Enzyme System (Promega; Madison, WI, USA), according to the provided manufacturer’s instruction, using the low-volume white polystyrene 384-well plates. The ADP-Glo Assay (Promega; Madison, WI, USA) was used for bioluminescent detection of the kinase activity. Tested compounds were prepared as 1 mM stock solutions in DMSO and diluted with the Kinase Assay Buffer before use (40 mM Tris, pH 7.5, enriched with 50 μM dithiothreitol; DTT) to obtain the desired compounds’ concentrations. The kinase enzyme, GSK-3β-substrate (derived from human muscle glycogen synthase 1), and ATP were also diluted in the assay buffer before use. At first, GSK-3β (10 ng per well) was incubated with the tested sample (10 μM in well) for 5 min. In the case of blank wells, the DMSO solution (1% in well) was used instead of the target samples’ solutions. After the incubation period, ATP (25 μM in well) and GSK-3β-substrate (0.2 μg/μL in well) were added to start the enzymatic reaction. The reaction mixture was kept at room temperature for 1 h, followed by the addition of the ADP-Glo reagent, to terminate the kinase reaction and deplete any remaining ATP. After the following 40 min—a second reagent (Kinase Detection Reagent) was applied to convert the obtained ADP to ATP and to generate light from the newly synthesized ATP using a luciferase/luciferin reaction. The mixture was kept for another 30 min at room temperature, then the luminescence was measured. Based on equation 100 – (S/B) × 100 (where S and B were the respective enzyme activities with and without the tested sample, respectively) the percent of inhibition of GSK-3β for each compound was calculated. […] Calculations were made using nonlinear regression (GraphPad Prism 9; GraphPad Software, San Diego, CA, USA) by plotting the residual enzyme activities against the applied inhibitor concentration. […] Each data point was collected in triplicate.

Row | SMILES | IL-6 release [1] | IC50 [2]
1 | NC(=O)N1CC=C(c2ccnc(NC(=O)C3CC3)c2)C1 [Compound 11, 3-(2-(Cyclopropanecarboxamido)pyridin-4-yl)-2,5-dihydro-1H-pyrrole-1-carboxamide] | significantly reducing the release | 141 ± 5 nM
2 | O=C(Nc1cc(-c2ccc(-c3ncon3)s2)ccn1)C1CC1 [Compound 36, N-(4-(5-(1,2,4-Oxadiazol-3-yl)thiophen-2-yl)pyridin-2-yl)cyclopropanecarboxamide] | significantly reducing the release | 70 ± 1 nM

From PMC11378298 (ACS Chemical Neuroscience, 2024)
